Measurements from patent publication US12258337B2, “Bicyclic CX3CR1 receptor agonists” (Board of Regents, The University of Texas System, priority 2019, dated 2025).

Assays:
Format in all cases: cell-based
hCX3CR1 [1] = biological target: T1, hCX3CR1 (Homo sapiens, UniProt P49238); test: Ga16 assay, CX3CR1 agonism, Ca2+ sensitive photo-protein readout (FLIPRTETRA); parameters: expressed in transfected cells; stably expresses a Ca2+ sensitive photo-protein; details: human CX3CR1 cell line
T1 sequence (P49238 1-355): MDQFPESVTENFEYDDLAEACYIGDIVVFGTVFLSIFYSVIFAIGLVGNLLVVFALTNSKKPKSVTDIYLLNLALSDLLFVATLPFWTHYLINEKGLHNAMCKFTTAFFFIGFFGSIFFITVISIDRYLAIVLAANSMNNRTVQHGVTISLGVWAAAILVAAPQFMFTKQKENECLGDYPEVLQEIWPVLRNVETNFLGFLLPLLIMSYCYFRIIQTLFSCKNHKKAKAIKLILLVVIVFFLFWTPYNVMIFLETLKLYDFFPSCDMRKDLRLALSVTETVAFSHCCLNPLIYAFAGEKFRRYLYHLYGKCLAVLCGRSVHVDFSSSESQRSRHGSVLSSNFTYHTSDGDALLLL
Procedure: (§1) Compounds (as well as stereoisomer(s) thereof and/or salt(s) thereof) were tested for CX3CR1 agonism in a cell based assay with fluorescent readout in Agonist Mode in dose response in quadruplicate with intra-plate modality).
(§2) Buffers and reagents. PBS (D-PBS without calcium and magnesium; EuroClone); Trypsin (Trypsin 0.05%, EDTA 0.02% in PBS; EuroClone); DMSO (Sigma); Standard tyrode buffer: in-house solution (130 mM NaCl, 5 mM KCl, 2 mM CaCl2), 1 mM MgCl2, 5 mM NaHCO3, 20 mM HEPES in water at pH 7.4; sterile filtered); Coelenterazine, native (Biosynth); stock 10 mM; Agonist: Recombinant Human Fractalkine (CX3CL1) (PeproTech); stock: 10 μM in standard tyrode buffer+BSA 0.1%; stored at −20° C.
(§3) Cell line. Human (hCX3CR1), mouse (mCX3CR1), and rat (rCX3CR1) were used for the assay.
(§4) Assay protocol. Experiments ere performed in 384 MTP format. Cells were seeded at 7,500 cells/well in 25 μl/well complete growth medium without selection antibiotics in 384-well plates. Twenty-four hours later, cells ere assayed for the response to various compounds using the Ca^2+ sensitive photo-protein stably expressed in the cells as readout.
(§5) The experiment was performed in a 384-well format according to the following procedure: • 24h after seeding, pre-incubate the cells at room temperature for 1 hour. • Then remove the culture medium. • Load cells with 20 μL/well of standard tyrode buffer+10 μM ceolenterazine. • Incubate cell plates for 3 hours at RT. • Inject 10 μL/w of 3× concentrated test compounds and controls in assay buffer at the FLIPRTETRA and monitor the kinetic response over a period of 90 seconds.
(§6) Data from FLIPRTETRA measurements were analyzed with the Genedata Screener© software. The following examples are meant to illustrate, but in no way to limit, the claimed invention.

hCX3CR1 [2] = biological target: T1, hCX3CR1; test: Suchi5 assay (HEK/NatClytin/CNG/Suchi5 transiently transfected hCX3CR1, Fluo-8 Ca2+ readout); parameters: expressed in transfected cells; stably expresses a Ca2+ sensitive photo-protein; details: Suchi5 assay, HEK/NatClytin/CNG/Suchi5 transfected with hCX3CR1; read-out: hCX3CR1 agonism EC50
Procedure: Buffers and reagents. PBS (D-PBS without calcium and magnesium; EuroClone); Trypsin (Trypsin 0.05%, EDTA 0.02% in PBS; EuroClone); Opti-MEM medium (Thermo Fisher); DMSO (Sigma); Standard tyrode buffer: in-house solution (130 mM NaCl, 5 mM KCl, 2 mM CaCl2), 1 mM MgCl2, 5 mM NaHCO3, 20 mM HEPES in water at pH 7.4; sterile filtered); Screen Quest™ Fluo-8 No Wash Calcium Assay Kit (AAt Bioquest®); Lipofectamine® 2000 Reagent (Thermo Fisher); Agonist: Recombinant Human Fractalkine (CX3CL1) (PeproTech); stock: 10 μM in standard Tyrode buffer/BSA 01%; stored at −20° C.
Cell line. The final cell line for CX3CR1-Suchi5 assay is HEK/NatClytin/CNG/Suchi5 transiently transfected hCX3CR1 cDNA. In this cell line native Gαi signaling is switched to Gαq pathway thanks to the overexpression of a Gαiq chimeric G protein (called Suchi5) to direct Gαi activation towards Ca^2+ release for measurement.
Assay protocol. Experiments are performed in 384 MTP format. Transiently transfected cells are seeded at 20,000 cells/well in 25 μl/well Opti-MEM medium without selection antibiotics in 384-well plates. 4-5-hours later 25 μL/well of complete medium with 20% of FBS are added to the cells. Twenty-four hours later, cells are assayed for the response to various compounds using a fluorescent Ca^2+ sensitive dye (FLUO8-No Wash Dye) as readout.
The experiment is performed in a 384-well format according to the following procedure: • 24h after seeding, remove the culture medium. • Load cells with 20 μL/well of 0.5X FLUO-8 No Wash Dye diluted in assay buffer. • Incubate cell plates for 1 hour at RT. • Inject 10 μL/w of 3× concentrated test compounds and controls in assay buffer at the FLIPRTETRA and monitor the kinetic response over a period of 90 seconds.
Data from FLIPRTETRA measurements are analyzed with the Genedata Screener© software.

rCX3CR1 = biological target: T2, rCX3CR1 (Rattus norvegicus, UniProt P35411); test: Ga16 assay, CX3CR1 agonism, Ca2+ sensitive photo-protein readout (FLIPRTETRA); details: rat CX3CR1 cell line
T2 construct: expressed in transfected cells; stably expresses a Ca2+ sensitive photo-protein
T2 sequence (P35411 1-354): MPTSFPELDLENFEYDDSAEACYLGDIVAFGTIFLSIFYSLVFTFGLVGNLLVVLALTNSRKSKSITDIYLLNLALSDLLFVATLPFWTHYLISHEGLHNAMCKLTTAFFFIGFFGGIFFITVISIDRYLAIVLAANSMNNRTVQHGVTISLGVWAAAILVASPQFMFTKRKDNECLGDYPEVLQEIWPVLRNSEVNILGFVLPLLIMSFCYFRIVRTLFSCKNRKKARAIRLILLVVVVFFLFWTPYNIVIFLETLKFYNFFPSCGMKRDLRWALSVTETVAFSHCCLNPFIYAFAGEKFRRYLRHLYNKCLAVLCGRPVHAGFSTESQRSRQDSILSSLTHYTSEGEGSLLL
Procedure: as §1, §2, §3, §4, §5, §6

mCX3CR1 = biological target: T3, mCX3CR1 (Mus musculus, UniProt Q9Z0D9); test: as above; details: mouse CX3CR1 cell line
T3 construct: expressed in transfected cells; stably expresses a Ca2+ sensitive photo-protein
T3 sequence (Q9Z0D9 1-354): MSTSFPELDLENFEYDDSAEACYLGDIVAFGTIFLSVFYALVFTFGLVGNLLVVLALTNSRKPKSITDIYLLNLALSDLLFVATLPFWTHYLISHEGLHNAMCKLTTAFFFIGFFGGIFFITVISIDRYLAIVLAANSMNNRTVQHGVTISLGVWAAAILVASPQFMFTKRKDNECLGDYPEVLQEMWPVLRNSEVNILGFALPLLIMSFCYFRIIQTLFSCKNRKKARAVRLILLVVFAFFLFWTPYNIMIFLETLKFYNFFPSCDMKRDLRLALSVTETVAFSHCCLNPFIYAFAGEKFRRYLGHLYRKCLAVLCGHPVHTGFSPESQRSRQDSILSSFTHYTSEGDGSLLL
Procedure: as §1, §2, §3, §4, §5, §6

EC50 (hCX3CR1 [1]) [µM] | EC50 (hCX3CR1 [2]) [µM] | EC50 (rCX3CR1) [µM] | EC50 (mCX3CR1) [µM] | Structure (SMILES)
16 | 7.2 | 11.4 | 20.4 | O=C(NCC1(CN2CCC(O)C2)CCC1)c1cc2c(s1)CCCCCC2 (centres unmarked) [Example 66, N-[[1-[(3-hydroxypyrrolidin-1-yl)methyl]cyclobutyl]methyl]-4,5,6,7,8,9-hexahydrocycloocta[b]thiophene-2-carboxamide]
8.6 | 11.8 | 33.7 | 48.6 | COC1(C)CCN(CC2(CNC(=O)c3cc4c(s3)CCCCCC4)CCCC2)CC1 [Example 53, N-[[1-[(4-methoxy-4-methylpiperidin-1-yl)methyl]cyclopentyl]methyl]-4,5,6,7,8,9-hexahydrocycloocta[b]thiophene-2-carboxamide]
9.8 | 9.6 | 9.7 | 13.5 | O=C(NCC1(CN2CCC(O)C2)CCCC1)c1cc2c(s1)CCCCCC2 (single isomer, unassigned) [Example 63, N-[[1-[(3-hydroxypyrrolidin-1-yl)methyl]cyclopentyl]methyl]-4,5,6,7,8,9-hexahydrocycloocta[b]thiophene-2-carboxamide]
16.3 | 17.4 | > 100 | > 100 | COC1CCCN(CC(C)(C)CNC(=O)c2cc3c(s2)CCCCCC3)C1 (centres unmarked) [Example 54, N-[3-(3-methoxypiperidin-1-yl)-2,2-dimethylpropyl]-4,5,6,7,8,9-hexahydrocycloocta[b]thiophene-2-carboxamide]
16.8 | 10.3 | 18.9 | 89.8 | CC1CCCC1(CNC(=O)c1cc2c(s1)CCCCCC2)CN(C)C (single isomer, unassigned) [Example 60, N-[[1-[(dimethylamino)methyl]-2-methylcyclopentyl]methyl]-4,5,6,7,8,9-hexahydrocycloocta[b]thiophene-2-carboxamide]
14.3 | 14.1 | 18.7 | 41.6 | O=C(NCC1(CN2CCC(O)CC2)CCCOC1)c1cc2c(s1)CCCCCC2 (centres unmarked) [Example 45, N-[[3-[(4-hydroxypiperidin-1-yl)methyl]oxan-3-yl]methyl]-4,5,6,7,8,9-hexahydrocycloocta[b]thiophene-2-carboxamide]
15.3 | 15.6 | 20.3 | 30.1 | O=C(NCC1(CN2CCCC2)CC(F)(F)C1)c1cc2c(s1)CCCCCC2 [Example 57, N-[[3,3-difluoro-1-(pyrrolidin-1-ylmethyl)cyclobutyl]methyl]-4,5,6,7,8,9-hexahydrocycloocta[b]thiophene-2-carboxamide]
20.8 | 12.9 | 40.9 | 99.4 | CC1CCCC1(CNC(=O)c1cc2c(s1)CCCCCC2)CN1CCCC1 (centres unmarked) [Example 62, N-[[2-methyl-1-(pyrrolidin-1-ylmethyl)cyclopentyl]methyl]-4,5,6,7,8,9-hexahydrocycloocta[b]thiophene-2-carboxamide]
15.7 | 18.4 | 34.8 | 15.4 | CC(C)OC1CCN(CC2(CNC(=O)c3cc4c(s3)CCCCCC4)CCC2)CC1 [Example 51, N-[[1-[(4-propan-2-yloxypiperidin-1-yl)methyl]cyclobutyl]methyl]-4,5,6,7,8,9-hexahydrocycloocta[b]thiophene-2-carboxamide]
18.5 | 9.9 | 13.7 | 18.2 | COC1(C)CCN(CC2(CNC(=O)c3cc4c(s3)CCCCCC4)CCC2)CC1 [Example 48, N-[[1-[(4-methoxy-4-methylpiperidin-1-yl)methyl]cyclobutyl]methyl]-4,5,6,7,8,9-hexahydrocycloocta[b]thiophene-2-carboxamide]
19.7 | 19.5 | 63 | > 100 | CC(C)(CNC(=O)c1cc2c(s1)CCCCCC2)CN1CCC(O)C(C)(C)C1 (centres unmarked) [Example 68, N-[3-(4-hydroxy-3,3-dimethylpiperidin-1-yl)-2,2-dimethylpropyl]-4,5,6,7,8,9-hexahydrocycloocta[b]thiophene-2-carboxamide]
6 | 8.2 | 7.4 | 9.2 | O=C(NCC1(CN2CCCC(O)C2)CCC1)c1cc2c(s1)CCCCCC2 (centres unmarked) [Example 65, N-[[1-[(3-hydroxypiperidin-1-yl)methyl]cyclobutyl]methyl]-4,5,6,7,8,9-hexahydrocycloocta[b]thiophene-2-carboxamide]
13.7 | 7.1 | 12.1 | 8.1 | COC1CCCN(CC2(CNC(=O)c3cc4c(s3)CCCCCC4)CCC2)C1 (centres unmarked) [Example 55, N-({1-[(3-Methoxypiperidin-1-yl)methyl]cyclobutyl}methyl)-4H,5H,6H,7H,8H,9H-cycloocta[b]thiophene-2-carboxamide]
21.9 | 5 | 16.8 | 19.1 | CC1(C)CN(CC2(CNC(=O)c3cc4c(s3)CCCCCC4)CCC2)CCC1O (centres unmarked) [Example 58, N-[[1-[(4-hydroxy-3,3-dimethylpiperidin-1-yl)methyl]cyclobutyl]methyl]-4,5,6,7,8,9-hexahydrocycloocta[b]thiophene-2-carboxamide]
